Reference: patent US20180271853A1, “Method of Use for Inhibitors of Epidermal Growth Factor Receptor Variant III” (METASTAT, INC., priority 2015, published 2018)
Blank lines part the entries; values can stand above or below the compound they belong to.

Columns and labels:
[1] = biological target: T1, phosphoY1173-EGFRviii expressed in U87MG tumor cells (Homo sapiens, UniProt P00533, DELINS30-297G); assay: Inhibition of phosphoY1173-EGFRviii in U87MG tumor cells engineered to express EGFR-viii (in-cell ELISA); format: cell-based; details: for activity against EGFR-viii: FIG. 1
T1 construct: expressed in transfected cells; host or cells: U87MG (ATCC), lentiviral infection, puromycin selection
Protocol: Cells stably expressing EGFR-WT or EGFR-viii were maintained in the presence of 0.5 ug/ml puromycin.
All EGFR inhibitors were purchased from Selleck Chemicals, Houston TX, at a concentration of 10 mM in DMSO. […] Serial dilution of compounds was prepared using DMSO at 100× the final concentration indicated and then diluted in cell media to the final concentration indicated.
Data are expressed as EC50 and were determined using an in-cell ELISA kit (Pierce).

[2] = test system: tumors expressing EGFR-viii; details: cited from earlier work; for benefit for GBM in clinical studies: clinical studies evaluating reversible or covalent EGFR inhibitors in GBM
EGFR-viii = EGFR-viii (Homo sapiens, UniProt P00533, DELINS30-297G); details: Ji, Zhao et al., 2006; Vivanco, Robins et al., 2012; cited from earlier work

Compound: C=CC(=O)Nc1cccc(Oc2nc(Nc3ccc(N4CCN(C)CC4)cc3)ncc2Cl)c1 [WZ3146]
- activity against EGFR-viii [1]: weak activity

Compound: CS(=O)(=O)CCNCc1ccc(-c2ccc3ncnc(Nc4ccc(OCc5cccc(F)c5)c(Cl)c4)c3c2)o1 [lapatinib]
- benefit for GBM in clinical studies [2]: failed to demonstrate significant benefit
- cancer growth inhibition in clinical studies ([2]; clinical studies, GBM): insignificant cancer growth inhibition

Compound: C#Cc1cccc(Nc2ncnc3cc(OCCOC)c(OCCOC)cc23)c1 [erlotinib]
- benefit for GBM in clinical studies [2]: failed to demonstrate significant benefit

- EC50 ([1]; in-cell ELISA, FIG. 1, read-out: EC50 against EGFR-viii): < 50 nM
Compound: C=CC(=O)Nc1ccc2ncnc(Nc3ccc(OCc4cccc(F)c4)c(Cl)c3)c2c1 [AST-1306]

- activity against EGFR-viii [1]: weak activity
Compound: C=CC(=O)Nc1cccc(Sc2nc(Nc3ccc(N4CCN(C)CC4)cc3)ncc2Cl)c1 [WZ8040]

Compound: COc1cc2ncnc(Nc3ccc(F)c(Cl)c3)c2cc1NC(=O)/C=C/CN1CCCCC1 [dacomitinib]
- inhibition of EGFR-viii (recent studies) (EGFR-viii): potent inhibitors of EGFR-viii

- activity against EGFR-viii [1]: weak activity
Compound: C=CC(=O)Nc1cccc(Nc2nc(Nc3ccc(N4CCN(C(C)=O)CC4)cc3OC)ncc2C(F)(F)F)c1 [CO-1686]
